Test: Inhibition of Influenza A virus (A/Chicken/Hebei/UR/2014(H5N2)) neuraminidase using 4-MU-NANA as substrate preincubated for 5 mins followed by substrate addition and measured after 30 to 60 mins by fluorescence assay

SMILES	IC50 [µM]
CCC(CC)O[C@@H]1C=C(C(=O)O)C[C@H](NCc2ccc(Oc3ccc(C)cc3)cc2)[C@H]1NC(C)=O	19.2
CCC(CC)O[C@@H]1C=C(C(=O)O)C[C@H](NCc2ccc(OCC3CC3)cc2)[C@H]1NC(C)=O	71.2
CCC(CC)O[C@@H]1C=C(C(=O)O)C[C@H](NCc2ccc(/C=C/c3ccccc3)cc2)[C@H]1NC(C)=O	10.6
CCC(CC)O[C@@H]1C=C(C(=O)O)C[C@H](NCc2ccc(OCc3ccc(C)cc3)cc2)[C@H]1NC(C)=O	36.4
CCC(CC)O[C@@H]1C=C(C(=O)O)C[C@H](NCc2ccc(OCc3ccc(C#N)cc3)cc2)[C@H]1NC(C)=O	13.7
CCC(CC)O[C@@H]1C=C(C(=O)O)C[C@H](NCc2ccc(Oc3ccc(OC)cc3)cc2)[C@H]1NC(C)=O	28.5
CCC(CC)O[C@@H]1C=C(C(=O)O)C[C@H](NCc2ccc(OCC3CCCCC3)cc2)[C@H]1NC(C)=O	13.5
CCC(CC)O[C@@H]1C=C(C(=O)O)C[C@H](NCc2ccc(NCc3ccccc3)cc2)[C@H]1NC(C)=O	0.59
CCC(CC)O[C@@H]1C=C(C(=O)O)C[C@H](NCc2ccc(SCc3ccc(OC)cc3)cc2)[C@H]1NC(C)=O	49.6
CCC(CC)O[C@@H]1C=C(C(=O)O)C[C@H](NCc2ccc(Oc3cccc(C)c3)cc2)[C@H]1NC(C)=O	12.8
CCC(CC)O[C@@H]1C=C(C(=O)O)C[C@H](NCc2ccc(OCc3ccc(SC)cc3)cc2)[C@H]1NC(C)=O	11.6
CCC(CC)O[C@@H]1C=C(C(=O)O)C[C@H](NCc2ccc(O[C@H](C)c3ccccc3)cc2)[C@H]1NC(C)=O	11.9
CCC(CC)O[C@@H]1C=C(C(=O)O)C[C@H](NCc2ccc(OCc3cccc(C)c3)cc2)[C@H]1NC(C)=O	30.9
CCC(CC)O[C@@H]1C=C(C(=O)O)C[C@H](NCc2ccc(Oc3ccc(F)cc3)cc2)[C@H]1NC(C)=O	12.7
CCC(CC)O[C@@H]1C=C(C(=O)O)C[C@H](NCc2ccc(OCc3cccc(C#N)c3)cc2)[C@H]1NC(C)=O	27
CCC(CC)O[C@@H]1C=C(C(=O)O)C[C@H](NCc2ccc(OCc3ccccc3OC)cc2)[C@H]1NC(C)=O	26.6
CCC(CC)O[C@@H]1C=C(C(=O)O)C[C@H](NCc2ccc(Oc3cccc(F)c3)cc2)[C@H]1NC(C)=O	12.8
CCC(CC)O[C@@H]1C=C(C(=O)O)C[C@H](NCc2ccc(C#Cc3ccccc3)cc2)[C@H]1NC(C)=O	17.8

Test: Inhibition of Influenza A virus (A/Babol/36/2005 (H3N2)) neuraminidase using 4-MU-NANA as substrate preincubated for 5 mins followed by substrate addition and measured after 30 to 60 mins by fluorescence assay

SMILES	IC50 [µM]
CCC(CC)O[C@@H]1C=C(C(=O)O)C[C@H](NCc2ccc(Oc3ccc(C)cc3)cc2)[C@H]1NC(C)=O	20.8
CCC(CC)O[C@@H]1C=C(C(=O)O)C[C@H](NCc2ccc(OCC3CC3)cc2)[C@H]1NC(C)=O	> 100
CCC(CC)O[C@@H]1C=C(C(=O)O)C[C@H](NCc2ccc(/C=C/c3ccccc3)cc2)[C@H]1NC(C)=O	4.78
CCC(CC)O[C@@H]1C=C(C(=O)O)C[C@H](NCc2ccc(OCc3ccc(C)cc3)cc2)[C@H]1NC(C)=O	27.1
CCC(CC)O[C@@H]1C=C(C(=O)O)C[C@H](NCc2ccc(OCc3ccc(C#N)cc3)cc2)[C@H]1NC(C)=O	20.9
CCC(CC)O[C@@H]1C=C(C(=O)O)C[C@H](NCc2ccc(Oc3ccc(OC)cc3)cc2)[C@H]1NC(C)=O	24.4
CCC(CC)O[C@@H]1C=C(C(=O)O)C[C@H](NCc2ccc(OCC3CCCCC3)cc2)[C@H]1NC(C)=O	8.4
CCC(CC)O[C@@H]1C=C(C(=O)O)C[C@H](NCc2ccc(NCc3ccccc3)cc2)[C@H]1NC(C)=O	0.3
CCC(CC)O[C@@H]1C=C(C(=O)O)C[C@H](NCc2ccc(SCc3ccc(OC)cc3)cc2)[C@H]1NC(C)=O	24.7
CCC(CC)O[C@@H]1C=C(C(=O)O)C[C@H](NCc2ccc(Oc3cccc(C)c3)cc2)[C@H]1NC(C)=O	9.21
CCC(CC)O[C@@H]1C=C(C(=O)O)C[C@H](NCc2ccc(OCc3ccc(SC)cc3)cc2)[C@H]1NC(C)=O	13.7
CCC(CC)O[C@@H]1C=C(C(=O)O)C[C@H](NCc2ccc(O[C@H](C)c3ccccc3)cc2)[C@H]1NC(C)=O	56.1
CCC(CC)O[C@@H]1C=C(C(=O)O)C[C@H](NCc2ccc(OCc3cccc(C)c3)cc2)[C@H]1NC(C)=O	21.5
CCC(CC)O[C@@H]1C=C(C(=O)O)C[C@H](NCc2ccc(Oc3ccc(F)cc3)cc2)[C@H]1NC(C)=O	11.6
CCC(CC)O[C@@H]1C=C(C(=O)O)C[C@H](NCc2ccc(OCc3cccc(C#N)c3)cc2)[C@H]1NC(C)=O	22.2
CCC(CC)O[C@@H]1C=C(C(=O)O)C[C@H](NCc2ccc(OCc3ccccc3OC)cc2)[C@H]1NC(C)=O	38.7
CCC(CC)O[C@@H]1C=C(C(=O)O)C[C@H](NCc2ccc(Oc3cccc(F)c3)cc2)[C@H]1NC(C)=O	12.4
CCC(CC)O[C@@H]1C=C(C(=O)O)C[C@H](NCc2ccc(C#Cc3ccccc3)cc2)[C@H]1NC(C)=O	9.9

Test: Inhibition of Influenza A virus (A/Puerto Rico/8/1934(H1N1)) neuraminidase using 4-MU-NANA as substrate preincubated for 5 mins followed by substrate addition and measured after 30 to 60 mins by fluorescence assay

SMILES	IC50 [µM]
CCC(CC)O[C@@H]1C=C(C(=O)O)C[C@H](NCc2ccc(Oc3ccc(C)cc3)cc2)[C@H]1NC(C)=O	6.74
CCC(CC)O[C@@H]1C=C(C(=O)O)C[C@H](NCc2ccc(OCC3CC3)cc2)[C@H]1NC(C)=O	10.1
CCC(CC)O[C@@H]1C=C(C(=O)O)C[C@H](NCc2ccc(/C=C/c3ccccc3)cc2)[C@H]1NC(C)=O	0.69
CCC(CC)O[C@@H]1C=C(C(=O)O)C[C@H](NCc2ccc(OCc3ccc(C)cc3)cc2)[C@H]1NC(C)=O	0.73
CCC(CC)O[C@@H]1C=C(C(=O)O)C[C@H](NCc2ccc(OCc3ccc(C#N)cc3)cc2)[C@H]1NC(C)=O	0.41
CCC(CC)O[C@@H]1C=C(C(=O)O)C[C@H](NCc2ccc(Oc3ccc(OC)cc3)cc2)[C@H]1NC(C)=O	12.2
CCC(CC)O[C@@H]1C=C(C(=O)O)C[C@H](NCc2ccc(OCC3CCCCC3)cc2)[C@H]1NC(C)=O	7.08
CCC(CC)O[C@@H]1C=C(C(=O)O)C[C@H](NCc2ccc(NCc3ccccc3)cc2)[C@H]1NC(C)=O	0.38
CCC(CC)O[C@@H]1C=C(C(=O)O)C[C@H](NCc2ccc(SCc3ccc(OC)cc3)cc2)[C@H]1NC(C)=O	0.74
CCC(CC)O[C@@H]1C=C(C(=O)O)C[C@H](NCc2ccc(Oc3cccc(C)c3)cc2)[C@H]1NC(C)=O	0.99
CCC(CC)O[C@@H]1C=C(C(=O)O)C[C@H](NCc2ccc(OCc3ccc(SC)cc3)cc2)[C@H]1NC(C)=O	1.48
CCC(CC)O[C@@H]1C=C(C(=O)O)C[C@H](NCc2ccc(O[C@H](C)c3ccccc3)cc2)[C@H]1NC(C)=O	8.02
CCC(CC)O[C@@H]1C=C(C(=O)O)C[C@H](NCc2ccc(OCc3cccc(C)c3)cc2)[C@H]1NC(C)=O	0.31
CCC(CC)O[C@@H]1C=C(C(=O)O)C[C@H](NCc2ccc(Oc3ccc(F)cc3)cc2)[C@H]1NC(C)=O	2.04
CCC(CC)O[C@@H]1C=C(C(=O)O)C[C@H](NCc2ccc(OCc3cccc(C#N)c3)cc2)[C@H]1NC(C)=O	1.46
CCC(CC)O[C@@H]1C=C(C(=O)O)C[C@H](NCc2ccc(OCc3ccccc3OC)cc2)[C@H]1NC(C)=O	7.64
CCC(CC)O[C@@H]1C=C(C(=O)O)C[C@H](NCc2ccc(Oc3cccc(F)c3)cc2)[C@H]1NC(C)=O	1.44
CCC(CC)O[C@@H]1C=C(C(=O)O)C[C@H](NCc2ccc(C#Cc3ccccc3)cc2)[C@H]1NC(C)=O	3.67

Test: Inhibition of Influenza A virus (A/goose/Guangdong/SH7/2013(H5N1)) neuraminidase using 4-MU-NANA as substrate preincubated for 5 mins followed by substrate addition and measured after 30 to 60 mins by fluorescence assay
Set-up: species or system H5N1 subtype

SMILES	IC50 [µM]
CCC(CC)O[C@@H]1C=C(C(=O)O)C[C@H](NCc2ccc(Oc3ccc(C)cc3)cc2)[C@H]1NC(C)=O	3.36
CCC(CC)O[C@@H]1C=C(C(=O)O)C[C@H](NCc2ccc(OCC3CC3)cc2)[C@H]1NC(C)=O	1.68
CCC(CC)O[C@@H]1C=C(C(=O)O)C[C@H](NCc2ccc(/C=C/c3ccccc3)cc2)[C@H]1NC(C)=O	0.26
CCC(CC)O[C@@H]1C=C(C(=O)O)C[C@H](NCc2ccc(OCc3ccc(C)cc3)cc2)[C@H]1NC(C)=O	0.73
CCC(CC)O[C@@H]1C=C(C(=O)O)C[C@H](NCc2ccc(OCc3ccc(C#N)cc3)cc2)[C@H]1NC(C)=O	0.42
CCC(CC)O[C@@H]1C=C(C(=O)O)C[C@H](NCc2ccc(Oc3ccc(OC)cc3)cc2)[C@H]1NC(C)=O	1.13
CCC(CC)O[C@@H]1C=C(C(=O)O)C[C@H](NCc2ccc(OCC3CCCCC3)cc2)[C@H]1NC(C)=O	10.5
CCC(CC)O[C@@H]1C=C(C(=O)O)C[C@H](NCc2ccc(NCc3ccccc3)cc2)[C@H]1NC(C)=O	1.52
CCC(CC)O[C@@H]1C=C(C(=O)O)C[C@H](NCc2ccc(SCc3ccc(OC)cc3)cc2)[C@H]1NC(C)=O	0.78
CCC(CC)O[C@@H]1C=C(C(=O)O)C[C@H](NCc2ccc(Oc3cccc(C)c3)cc2)[C@H]1NC(C)=O	0.49
CCC(CC)O[C@@H]1C=C(C(=O)O)C[C@H](NCc2ccc(OCc3ccc(SC)cc3)cc2)[C@H]1NC(C)=O	0.98
CCC(CC)O[C@@H]1C=C(C(=O)O)C[C@H](NCc2ccc(O[C@H](C)c3ccccc3)cc2)[C@H]1NC(C)=O	3.67
CCC(CC)O[C@@H]1C=C(C(=O)O)C[C@H](NCc2ccc(OCc3cccc(C)c3)cc2)[C@H]1NC(C)=O	0.51
CCC(CC)O[C@@H]1C=C(C(=O)O)C[C@H](NCc2ccc(Oc3ccc(F)cc3)cc2)[C@H]1NC(C)=O	0.78
CCC(CC)O[C@@H]1C=C(C(=O)O)C[C@H](NCc2ccc(OCc3cccc(C#N)c3)cc2)[C@H]1NC(C)=O	0.34
CCC(CC)O[C@@H]1C=C(C(=O)O)C[C@H](NCc2ccc(OCc3ccccc3OC)cc2)[C@H]1NC(C)=O	1.31
CCC(CC)O[C@@H]1C=C(C(=O)O)C[C@H](NCc2ccc(Oc3cccc(F)c3)cc2)[C@H]1NC(C)=O	0.91
CCC(CC)O[C@@H]1C=C(C(=O)O)C[C@H](NCc2ccc(C#Cc3ccccc3)cc2)[C@H]1NC(C)=O	12

Test: Inhibition of Influenza A virus (A/California/04/2009(H1N1)) neuraminidase using 4-MU-NANA as substrate preincubated for 5 mins followed by substrate addition and measured after 30 to 60 mins by fluorescence assay

SMILES	IC50 [µM]
CCC(CC)O[C@@H]1C=C(C(=O)O)C[C@H](NCc2ccc(Oc3ccc(C)cc3)cc2)[C@H]1NC(C)=O	12.4
CCC(CC)O[C@@H]1C=C(C(=O)O)C[C@H](NCc2ccc(OCC3CC3)cc2)[C@H]1NC(C)=O	33
CCC(CC)O[C@@H]1C=C(C(=O)O)C[C@H](NCc2ccc(/C=C/c3ccccc3)cc2)[C@H]1NC(C)=O	0.44
CCC(CC)O[C@@H]1C=C(C(=O)O)C[C@H](NCc2ccc(OCc3ccc(C)cc3)cc2)[C@H]1NC(C)=O	1.45
CCC(CC)O[C@@H]1C=C(C(=O)O)C[C@H](NCc2ccc(OCc3ccc(C#N)cc3)cc2)[C@H]1NC(C)=O	0.41
CCC(CC)O[C@@H]1C=C(C(=O)O)C[C@H](NCc2ccc(Oc3ccc(OC)cc3)cc2)[C@H]1NC(C)=O	14.3
CCC(CC)O[C@@H]1C=C(C(=O)O)C[C@H](NCc2ccc(OCC3CCCCC3)cc2)[C@H]1NC(C)=O	19.6
CCC(CC)O[C@@H]1C=C(C(=O)O)C[C@H](NCc2ccc(NCc3ccccc3)cc2)[C@H]1NC(C)=O	0.77
CCC(CC)O[C@@H]1C=C(C(=O)O)C[C@H](NCc2ccc(SCc3ccc(OC)cc3)cc2)[C@H]1NC(C)=O	1.7
CCC(CC)O[C@@H]1C=C(C(=O)O)C[C@H](NCc2ccc(Oc3cccc(C)c3)cc2)[C@H]1NC(C)=O	1.68
CCC(CC)O[C@@H]1C=C(C(=O)O)C[C@H](NCc2ccc(OCc3ccc(SC)cc3)cc2)[C@H]1NC(C)=O	4.02
CCC(CC)O[C@@H]1C=C(C(=O)O)C[C@H](NCc2ccc(O[C@H](C)c3ccccc3)cc2)[C@H]1NC(C)=O	19.6
CCC(CC)O[C@@H]1C=C(C(=O)O)C[C@H](NCc2ccc(OCc3cccc(C)c3)cc2)[C@H]1NC(C)=O	1.21
CCC(CC)O[C@@H]1C=C(C(=O)O)C[C@H](NCc2ccc(Oc3ccc(F)cc3)cc2)[C@H]1NC(C)=O	3.41
CCC(CC)O[C@@H]1C=C(C(=O)O)C[C@H](NCc2ccc(OCc3cccc(C#N)c3)cc2)[C@H]1NC(C)=O	2.56
CCC(CC)O[C@@H]1C=C(C(=O)O)C[C@H](NCc2ccc(OCc3ccccc3OC)cc2)[C@H]1NC(C)=O	13.5
CCC(CC)O[C@@H]1C=C(C(=O)O)C[C@H](NCc2ccc(Oc3cccc(F)c3)cc2)[C@H]1NC(C)=O	2.26
CCC(CC)O[C@@H]1C=C(C(=O)O)C[C@H](NCc2ccc(C#Cc3ccccc3)cc2)[C@H]1NC(C)=O	27.6
